The text below walks through data of US20230143604A1, “QW DOSING OF GIP RECEPTOR AGONIST PEPTIDE COMPOUNDS AND USES THEREOF” (TAKEDA PHARMACEUTICAL COMPANY LIMITED, priority 2020, published 2023).

One data set in a line: physchem. The method in brief:
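Solubility at pH 7.4 determined by stepwise addition of 200 mM phosphate buffer in 100 μL increments to 3 mg peptide, mixing briefly each time, until no insoluble material remained, then measured by liquid chromatography.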

Another data set has as its target T1, human GLP-1R (Homo sapiens, UniProt P43220).
T1 construct: HEK-293T cells overexpressing full-length human GLP-1R; FLAG (N); host or cells: HEK-293T
In words: Human GLP1R agonist activity, intracellular cAMP accumulation. The class given is cell-based. The settings on record: HEK-293T cells overexpressing human GLP-1R, 1 hr. As to the method:
Cells are cultured per the manufacturer's protocol in DMEM with 10% fetal bovine serum and 1 μg/mL puromycin and stored in frozen aliquots to be used as assay ready cells. On the day of the assay, cells are removed from frozen storage, washed two times in 1× Kreb's Ringer Buffer (Zenbio, Research Triangle Park, N.C.), and re-suspended to a concentration of 4×10^5 cells/mL in 1× Kreb's Ringer Buffer. […] Cells are incubated with test compound for 1 hr at room temperature in the dark, and cAMP accumulation is measured using the Cisbio HiRange cAMP assay kit (Bedford, Mass.) per the manufacturer's protocol. Anti-cAMP antibody and d2-cAMP tracer reagents diluted in lysis/detection buffer are incubated in the dark for 1 hr, and results are measured on an Envision plate reader (Perkin Elmer, Waltham, Mass.). Data is normalized using 1 nm GLP-1 as 100% activity, and DMSO alone as 0% activity.
Background: Changes in cAMP serve as a functional read-out for many G protein-coupled receptors.

For data set [1], the target named is T2, full-length human GIPR with an N-terminal FLAG tag, overexpressed on HEK-293T cells (human, UniProt P48546 22-466).
T2 sequence (looked up): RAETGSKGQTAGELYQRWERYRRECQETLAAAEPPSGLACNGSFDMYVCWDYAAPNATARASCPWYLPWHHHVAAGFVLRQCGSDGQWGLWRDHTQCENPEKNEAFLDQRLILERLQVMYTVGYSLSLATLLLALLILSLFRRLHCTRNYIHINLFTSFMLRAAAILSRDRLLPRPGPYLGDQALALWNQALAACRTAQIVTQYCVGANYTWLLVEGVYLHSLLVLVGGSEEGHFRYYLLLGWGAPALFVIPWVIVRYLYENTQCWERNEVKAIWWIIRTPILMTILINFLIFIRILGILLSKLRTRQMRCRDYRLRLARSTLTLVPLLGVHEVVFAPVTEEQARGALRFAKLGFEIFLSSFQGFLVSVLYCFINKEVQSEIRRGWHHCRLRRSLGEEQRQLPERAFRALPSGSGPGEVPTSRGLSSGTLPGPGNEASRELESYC
In words: cell-based or functional assay.

In data set [2] the target is full-length human GLP-1R with an N-terminal FLAG tag, overexpressed on HEK-293T cells (human, UniProt P43220 24-463). In words: cell-based or functional assay.
Where [3] appears, read: read-out: Human GLP1R cAMP EC50, HEK293T.

Like-named read-outs stand apart in the source and are kept apart here. Starred links: 1 amine or outer side, 2 acyl side, 3 side chain; linkers in the order of their positions; H or OH if unused. Non-standard residues stand in square brackets, D forms with d. Residues, ends and D or L forms follow the SMILES beside them. Groups on a side chain read outwards from the residue. No end group written: not given here. *: point of attachment. C18 diacid = O=C(O)CCCCCCCCCCCCCCCCC(=O)*; γGlu = O=C(O)[C@H](CCC(=O)[*:2])N[*:1]; NMeY = CN[C@@H](Cc1ccc(O)cc1)C(=O)O; AEEA = NCCOCCOCC(=O)O; Aib = CC(C)(N)C(=O)O

T1 sequence (P43220 24-463): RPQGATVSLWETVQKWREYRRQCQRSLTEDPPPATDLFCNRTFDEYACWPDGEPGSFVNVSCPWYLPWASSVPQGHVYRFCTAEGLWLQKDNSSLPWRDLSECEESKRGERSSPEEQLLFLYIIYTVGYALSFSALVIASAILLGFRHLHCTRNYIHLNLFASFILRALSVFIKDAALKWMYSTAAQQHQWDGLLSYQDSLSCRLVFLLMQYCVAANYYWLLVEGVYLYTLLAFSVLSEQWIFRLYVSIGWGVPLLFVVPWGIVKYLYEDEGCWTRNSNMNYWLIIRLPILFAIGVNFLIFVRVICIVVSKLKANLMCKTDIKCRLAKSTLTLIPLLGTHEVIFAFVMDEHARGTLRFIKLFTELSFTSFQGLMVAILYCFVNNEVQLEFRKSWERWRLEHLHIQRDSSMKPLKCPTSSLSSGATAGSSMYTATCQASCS

For the molecule `CC[C@H](C)[C@H](NC(=O)[C@H](CO)NC(=O)[C@H](Cc1ccc(O)cc1)NC(=O)[C@H](CC(=O)O)NC(=O)[C@H](CO)NC(=O)[C@@H](NC(=O)[C@H](Cc1ccccc1)NC(=O)[C@@H](NC(=O)CNC(=O)[C@H](CCC(=O)O)NC(=O)C(C)(C)NC(=O)[C@H](Cc1ccc(O)cc1)NC)[C@@H](C)O)[C@@H](C)CC)C(=O)N[C@@H](C)C(=O)N[C@@H](CCCCNC(=O)CNC(=O)CNC(=O)CNC(=O)CNC(=O)CNC(=O)CCCCCCCCCCCCCCCCC(=O)O)C(=O)N[C@@H](CC(=O)O)C(=O)N[C@@H](CCCCN)C(=O)NC(C)(C)C(=O)N[C@@H](C)C(=O)N[C@@H](CCC(N)=O)C(=O)NC(C)(C)C(=O)N[C@@H](CC(=O)O)C(=O)N[C@@H](Cc1ccccc1)C(=O)N[C@H](C(=O)N[C@@H](CC(N)=O)C(=O)N[C@@H](Cc1c[nH]c2ccccc12)C(=O)N[C@@H](CC(C)C)C(=O)N[C@@H](CC(C)C)C(=O)N[C@@H](C)C(=O)N[C@@H](CCC(N)=O)C(=O)N[C@@H](CCCCN)C(=O)NCC(=O)O)C(C)C` [Compound 76], the solubility in the data set “physchem” (pH 7.4) is no less than 15 mg/mL; in the data set “physchem” (pH 7.4, aqueous buffer) it was no less than 30 mg/mL. Also, the EC50 at human GLP-1R (setting [3]) stood at 28.8 nM.

In the case of `CC[C@H](C)[C@H](NC(=O)[C@H](CO)NC(=O)[C@H](Cc1ccc(O)cc1)NC(=O)[C@H](CC(=O)O)NC(=O)[C@H](CO)NC(=O)[C@@H](NC(=O)[C@H](Cc1ccccc1)NC(=O)[C@@H](NC(=O)CNC(=O)[C@H](CCC(=O)O)NC(=O)C(C)(C)NC(=O)[C@H](Cc1ccc(O)cc1)NC)[C@@H](C)O)[C@@H](C)CC)C(=O)N[C@@H](C)C(=O)N[C@@H](CCCCNC(=O)CNC(=O)CNC(=O)CNC(=O)CNC(=O)CNC(=O)CCCCCCCCCCCCCCCCC(=O)O)C(=O)N[C@@H](CC(=O)O)C(=O)N[C@@H](CCCNC(=N)N)C(=O)NC(C)(C)C(=O)N[C@@H](C)C(=O)N[C@@H](CCC(N)=O)C(=O)N[C@@H](CCCNC(=N)N)C(=O)N[C@@H](CC(=O)O)C(=O)N[C@@H](Cc1ccccc1)C(=O)N[C@H](C(=O)N[C@@H](CCC(=O)O)C(=O)N[C@@H](Cc1c[nH]c2ccccc12)C(=O)N[C@@H](CC(C)C)C(=O)N[C@@H](CC(C)C)C(=O)N[C@@H](C)C(=O)N[C@@H](CCC(N)=O)C(=O)N[C@@H](CO)C(=O)N1CCC[C@H]1C(=O)NCC(=O)O)C(C)C` [Compound 120], the solubility in the data set “physchem” (pH 7.4) was no less than 15 mg/mL; in “physchem” (pH 7.4, aqueous buffer), no less than 30 mg/mL. Moreover, the EC50 at human GLP-1R (setting [3]) came out at 15.8 nM.

With `CC[C@H](C)[C@H](NC(=O)[C@H](CO)NC(=O)[C@H](Cc1ccc(O)cc1)NC(=O)[C@H](CC(=O)O)NC(=O)[C@H](CO)NC(=O)[C@@H](NC(=O)[C@H](Cc1ccccc1)NC(=O)[C@@H](NC(=O)CNC(=O)[C@H](CCC(=O)O)NC(=O)C(C)(C)NC(=O)[C@H](Cc1ccc(O)cc1)NC)[C@@H](C)O)[C@@H](C)CC)C(=O)N[C@@H](C)C(=O)N[C@@H](CCCCNC(=O)CNC(=O)CNC(=O)CNC(=O)CNC(=O)CNC(=O)CCCCCCCCCCCCCCCCCCC(=O)O)C(=O)N[C@@H](CC(=O)O)C(=O)N[C@@H](CCCNC(=N)N)C(=O)NC(C)(C)C(=O)N[C@@H](C)C(=O)N[C@@H](CCC(N)=O)C(=O)NC(C)(C)C(=O)N[C@@H](CC(N)=O)C(=O)N[C@@H](Cc1ccccc1)C(=O)N[C@H](C(=O)N[C@@H](CC(N)=O)C(=O)N[C@@H](Cc1c[nH]c2ccccc12)C(=O)N[C@@H](CC(C)C)C(=O)N[C@@H](CC(C)C)C(=O)N[C@@H](C)C(=O)N[C@@H](CCC(N)=O)C(=O)N[C@@H](CO)C(=O)N1CCC[C@H]1C(=O)N[C@@H](CO)C(=O)N[C@@H](CO)C(=O)NCC(=O)N[C@@H](C)C(=O)N1CCC[C@H]1C(=O)N1CCC[C@H]1C(=O)N1CCC[C@H]1C(=O)N[C@@H](CO)C(=O)O)C(C)C` [Compound 112], the solubility was no less than 30 mg/mL in “physchem” (pH 7.4, aqueous buffer, pH 7.4 Phosphate Buffer - Solubility, 200 mM Phosphate buffer pH 7.4) and no less than 15 mg/mL in the data set “physchem” (pH 7.4, solubility in phosphate buffer at pH 7.4, 200 mM phosphate buffer pH 7.4). In addition, the response on human GLP-1R (Human GLP1R cAMP EC50, HEK293T (nM)) was half-maximal at 21.4 nM (EC50).

With `CC[C@H](C)[C@H](NC(=O)[C@H](Cc1ccccc1)NC(=O)[C@@H](NC(=O)CNC(=O)[C@H](CCC(=O)O)NC(=O)C(C)(C)NC(=O)[C@@H](N)Cc1ccc(O)cc1)[C@@H](C)O)C(=O)N[C@@H](CO)C(=O)N[C@@H](CC(=O)O)C(=O)N[C@@H](Cc1ccc(O)cc1)C(=O)N[C@@H](CO)C(=O)N[C@H](C(=O)NC(C)(C)C(=O)N[C@@H](CCCCNC(=O)CNC(=O)CNC(=O)CNC(=O)CNC(=O)CNC(=O)CCCCCCCCCCCCCCCCC(=O)O)C(=O)N[C@@H](CC(=O)O)C(=O)N[C@@H](CO)C(=O)NC(C)(C)C(=O)N[C@@H](C)C(=O)N[C@@H](CCC(N)=O)C(=O)N[C@@H](C)C(=O)N[C@@H](CC(=O)O)C(=O)N[C@@H](Cc1ccccc1)C(=O)N[C@H](C(=O)N[C@@H](CC(N)=O)C(=O)N[C@@H](Cc1c[nH]c2ccccc12)C(=O)N[C@@H](CC(C)C)C(=O)N[C@@H](CC(C)C)C(=O)N[C@@H](C)C(=O)N[C@@H](CCC(N)=O)C(=O)N[C@@H](CCCNC(=N)N)C(=O)NCC(=O)O)C(C)C)[C@@H](C)CC` [Compound 152], the solubility in the data set “physchem” (pH 7.4) was no less than 15 mg/mL; in “physchem” (pH 7.4, aqueous buffer), no less than 30 mg/mL. The EC50 on human GLP-1R (setting [3]) stood at 33.1 nM.

In the case of `CC[C@H](C)[C@H](NC(=O)[C@H](Cc1ccccc1)NC(=O)[C@@H](NC(=O)CNC(=O)[C@H](CCC(=O)O)NC(=O)C(C)(C)NC(=O)[C@H](Cc1ccc(O)cc1)NC)[C@@H](C)O)C(=O)N[C@@H](CO)C(=O)N[C@@H](CC(=O)O)C(=O)N[C@@H](Cc1ccc(O)cc1)C(=O)N[C@@H](CO)C(=O)N[C@H](C(=O)NC(C)(C)C(=O)N[C@@H](CC(C)C)C(=O)N[C@@H](CC(=O)O)C(=O)N[C@@H](CCCNC(=N)N)C(=O)NC(C)(C)C(=O)N[C@@H](C)C(=O)N[C@@H](CCC(N)=O)C(=O)NC(C)(C)C(=O)N[C@@H](CCCCNC(=O)COCCOCCNC(=O)COCCOCCNC(=O)CCCCCCCCCCCCCCCCC(=O)O)C(=O)N[C@@H](Cc1ccccc1)C(=O)N[C@H](C(=O)N[C@@H](CC(N)=O)C(=O)N[C@@H](Cc1c[nH]c2ccccc12)C(=O)N[C@@H](CC(C)C)C(=O)N[C@@H](CC(C)C)C(=O)N[C@@H](C)C(=O)N[C@@H](CCC(N)=O)C(=O)N[C@@H](CCCNC(=N)N)C(=O)NCC(=O)O)C(C)C)[C@@H](C)CC` [Compound 219] (H-[NMeY][Aib]EGTFISDYSI[Aib]LDR[Aib]AQ[Aib]K([AEEA-AEEA-C18 diacid])FVNWLLAQRG-OH), the EC50 at human GLP-1R (setting [3]) came out at 17.4 nM.

B1: Compound No. 215 (peptide)
peptide: [NMeY][Aib]EGTFISDYSI[Aib]LDR[Aib]AQAK([AEEA-AEEA-γGlu-γGlu-C18 diacid])FVNWLLAQRG-OH
Turning to B1, the “Human GIPR cAMP EC50, HEK293T” value in data set [1] was found to be 0.0005 nM. Moreover, in data set [2], the “Human GLP1R cAMP EC50, HEK293T” value came to 61.7 nM.

B2: Compound No. 218 (peptide)
peptide: [NMeY]AEGTFISDYSI[Aib]LDR[Aib]AQ[Aib]K([AEEA-AEEA-γGlu-γGlu-C18 diacid])FVNWLLAQRG-OH
Take B2: the “Human GIPR cAMP EC50, HEK293T” value in data set [1] was determined as 0.0005 nM. In data set [2], the “Human GLP1R cAMP EC50, HEK293T” value was found to be 38 nM.

B3: Compound No. 217 (peptide)
peptide: [NMeY][dA]EGTFISDYSI[Aib]LDR[Aib]AQ[Aib]K([AEEA-AEEA-γGlu-γGlu-C18 diacid])FVNWLLAQRG-OH
For the molecule B3, in data set [1], the “Human GIPR cAMP EC50, HEK293T” value worked out at 0.0006 nM. Besides, in data set [2], the “Human GLP1R cAMP EC50, HEK293T” value turned out to be 135 nM.

B4: Compound No. 219 (peptide)
peptide: [NMeY][Aib]EGTFISDYSI[Aib]LDR[Aib]AQ[Aib]K([AEEA-AEEA-C18 diacid])FVNWLLAQRG-OH
Regarding B4, in data set [1], the “Human GIPR cAMP EC50, HEK293T” value is 0.0008 nM. Also, the “Human GLP1R cAMP EC50, HEK293T” value in data set [2] worked out at 17.4 nM.

B5: Compound No. 216 (peptide)
peptide: [NMeY][Aib]EGTFISDYSIALDRAAQAK([AEEA-AEEA-γGlu-γGlu-C18 diacid])FVNWLLAQRG-OH
Turning to B5, the “Human GIPR cAMP EC50, HEK293T” value in data set [1] was 0.0005 nM. Moreover, the “Human GLP1R cAMP EC50, HEK293T” value in data set [2] is 79.4 nM.

By solubility is commonly meant the dissolved amount per volume that the medium holds. Higher therefore signals a readily soluble substance. One may read the EC50 as the midpoint of the concentration-response curve.
